Measured values published in paper PMC6261308 (Advanced functional materials, 2018).

Assay: Acute toxicity: hemograms and serum biochemistry
Format: in vivo, Balb/c mice
Conditions: 2.5 mg kg^−1 of drug content three times a week

SMILES: COc1cccc2c1C(=O)c1c(O)c3c(c(O)c1C2=O)C[C@@](O)(/C(CO)=N/NC(=O)CCCCCN1C(=O)C=CC1=O)C[C@@H]3O[C@H]1C[C@H](N)[C@H](O)[C@H](C)O1 [aldox, aldoxorubicin]
- serum creatine kinase (CK) level: increased CK level
